Measurements reported in the supplement of paper PMC10307832.

Legend:
Test in all cases: relative viability (nuclei count vs DMSO), 5 days (fraction); higher = more cells survive
[1] = compound: O=C(Nc1c[nH]nc1-c1nc2ccc(CN3CCOCC3)cc2[nH]1)NC1CC1 [AT9283] + CS(=O)(=O)CCNCc1ccc(-c2ccc3ncnc(Nc4ccc(OCc5cccc(F)c5)c(Cl)c4)c3c2)o1 [Lapatinib] (partner 2 µM)
How it was run: (§1)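 Lung cancer cell lines, seeded in 1536-well plates, were treated the following day by pin tool with a single drug or with five library-drug doses (not always all listed) in √10 steps on top of a fixed anchor-drug dose. Cells were fixed and nuclei stained in one step after 5 days, and nuclei were counted. Relative viability is the nuclei count for treated wells divided by that for vehicle wells, reported as medians of duplicate plates.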

[2] = compound: C#Cc1cccc(Nc2ncnc3cc(OCCOC)c(OCCOC)cc23)c1 [Erlotinib] + Cc1cc(Nc2cc(N3CCN(C)CC3)nc(Sc3ccc(NC(=O)C4CC4)cc3)n2)n[nH]1 [Tozasertib] (partner 0.1 µM)
How it was run: as §1

[3] = compound: C#Cc1cccc(Nc2ncnc3cc(OCCOC)c(OCCOC)cc23)c1 [Erlotinib] + N=C(N)NC(=N)NCCc1ccccc1 [Phenformin] (partner 250 µM)
How it was run: as §1

[4] = compound: C#Cc1cccc(Nc2ncnc3cc(OCCOC)c(OCCOC)cc23)c1 [Erlotinib] + Nc1ncn([C@H]2C[C@H](O)[C@@H](CO)O2)c(=O)n1 [Decitabine] (partner 2 µM)
How it was run: as §1

[5] = compound: C#Cc1cccc(Nc2ncnc3cc(OCCOC)c(OCCOC)cc23)c1 [Erlotinib] + O=C(CCCCCCC(=O)Nc1ccccc1)NO [Vorinostat] (partner 1 µM)
How it was run: as §1

NCI-H1395
relative viability ([1]; first compound 0.003 µM): 0.904
relative viability ([1]; first compound 0.03 µM): 0.703
relative viability ([1]; first compound 0.09487 µM): 0.412
relative viability ([1]; first compound 0.3 µM): 0.427
relative viability ([2]; first compound 0.02 µM): 0.837
relative viability ([2]; first compound 0.2 µM): 0.772
relative viability ([2]; first compound 0.6325 µM): 0.712
relative viability ([2]; first compound 2 µM): 0.566
relative viability ([3]; first compound 0.02 µM): 0.503
relative viability ([3]; first compound 0.2 µM): 0.462
relative viability ([3]; first compound 0.6325 µM): 0.483
relative viability ([3]; first compound 2 µM): 0.463
relative viability ([4]; first compound 0.02 µM): 0.816
relative viability ([4]; first compound 0.2 µM): 0.726
relative viability ([4]; first compound 0.6325 µM): 0.807
relative viability ([4]; first compound 2 µM): 0.678
relative viability ([5]; first compound 0.02 µM): 0.776
relative viability ([5]; first compound 0.2 µM): 0.674
relative viability ([5]; first compound 0.6325 µM): 0.808
relative viability ([5]; first compound 2 µM): 0.652

NCI-H1650
relative viability ([1]; first compound 0.003 µM): 0.697
relative viability ([1]; first compound 0.03 µM): 0.287
relative viability ([1]; first compound 0.09487 µM): 0.225
relative viability ([1]; first compound 0.3 µM): 0.115
relative viability ([2]; first compound 0.02 µM): 0.465
relative viability ([2]; first compound 0.2 µM): 0.332
relative viability ([2]; first compound 0.6325 µM): 0.305
relative viability ([2]; first compound 2 µM): 0.217
relative viability ([3]; first compound 0.02 µM): 0.4
relative viability ([3]; first compound 0.2 µM): 0.263
relative viability ([3]; first compound 0.6325 µM): 0.411
relative viability ([3]; first compound 2 µM): 0.274
relative viability ([4]; first compound 0.02 µM): 0.331
relative viability ([4]; first compound 0.2 µM): 0.365
relative viability ([4]; first compound 0.6325 µM): 0.509
relative viability ([4]; first compound 2 µM): 0.421
relative viability ([5]; first compound 0.02 µM): 0.556
relative viability ([5]; first compound 0.2 µM): 0.559
relative viability ([5]; first compound 0.6325 µM): 0.488
relative viability ([5]; first compound 2 µM): 0.411

NCI-H358
relative viability ([1]; first compound 0.003 µM): 0.413
relative viability ([1]; first compound 0.03 µM): 0.192
relative viability ([1]; first compound 0.09487 µM): 0.176
relative viability ([1]; first compound 0.3 µM): 0.16
relative viability ([2]; first compound 0.02 µM): 0.0843
relative viability ([2]; first compound 0.2 µM): 0.111
relative viability ([2]; first compound 0.6325 µM): 0.0963
relative viability ([2]; first compound 2 µM): 0.0822
relative viability ([3]; first compound 0.02 µM): 0.349
relative viability ([3]; first compound 0.2 µM): 0.277
relative viability ([3]; first compound 0.6325 µM): 0.234
relative viability ([3]; first compound 2 µM): 0.178
relative viability ([4]; first compound 0.02 µM): 0.216
relative viability ([4]; first compound 0.2 µM): 0.183
relative viability ([4]; first compound 0.6325 µM): 0.179
relative viability ([4]; first compound 2 µM): 0.167
relative viability ([5]; first compound 0.02 µM): 0.693
relative viability ([5]; first compound 0.2 µM): 0.292
relative viability ([5]; first compound 0.6325 µM): 0.419
relative viability ([5]; first compound 2 µM): 0.221

NCI-H2170
relative viability ([1]; first compound 0.003 µM): 0.242
relative viability ([1]; first compound 0.03 µM): 0.261
relative viability ([1]; first compound 0.09487 µM): 0.2
relative viability ([1]; first compound 0.3 µM): 0.2
relative viability ([2]; first compound 0.02 µM): 0.811
relative viability ([2]; first compound 0.2 µM): 0.73
relative viability ([2]; first compound 0.6325 µM): 0.607
relative viability ([2]; first compound 2 µM): 0.324
relative viability ([3]; first compound 0.02 µM): 0.422
relative viability ([3]; first compound 0.2 µM): 0.463
relative viability ([3]; first compound 0.6325 µM): 0.386
relative viability ([3]; first compound 2 µM): 0.324
relative viability ([4]; first compound 0.02 µM): 0.542
relative viability ([4]; first compound 0.2 µM): 0.492
relative viability ([4]; first compound 0.6325 µM): 0.505
relative viability ([4]; first compound 2 µM): 0.419
relative viability ([5]; first compound 0.02 µM): 0.787
relative viability ([5]; first compound 0.2 µM): 0.855
relative viability ([5]; first compound 0.6325 µM): 0.832
relative viability ([5]; first compound 2 µM): 0.501

201T
relative viability ([1]; first compound 0.003 µM): 0.816
relative viability ([1]; first compound 0.03 µM): 0.96
relative viability ([1]; first compound 0.09487 µM): 0.904
relative viability ([1]; first compound 0.3 µM): 0.409
relative viability ([2]; first compound 0.02 µM): 0.965
relative viability ([2]; first compound 0.2 µM): 0.915
relative viability ([2]; first compound 0.6325 µM): 0.877
relative viability ([2]; first compound 2 µM): 0.707
relative viability ([3]; first compound 0.02 µM): 0.468
relative viability ([3]; first compound 0.2 µM): 0.408
relative viability ([3]; first compound 0.6325 µM): 0.465
relative viability ([3]; first compound 2 µM): 0.421
relative viability ([4]; first compound 0.02 µM): 0.851
relative viability ([4]; first compound 0.2 µM): 0.793
relative viability ([4]; first compound 0.6325 µM): 0.824
relative viability ([4]; first compound 2 µM): 0.8
relative viability ([5]; first compound 0.02 µM): 0.573
relative viability ([5]; first compound 0.6325 µM): 0.89
relative viability ([5]; first compound 2 µM): 0.816

NCI-H596
relative viability ([1]; first compound 0.003 µM): 0.845
relative viability ([1]; first compound 0.03 µM): 0.884
relative viability ([1]; first compound 0.09487 µM): 0.623
relative viability ([1]; first compound 0.3 µM): 0.404
relative viability ([2]; first compound 0.02 µM): 0.805
relative viability ([2]; first compound 0.2 µM): 0.848
relative viability ([2]; first compound 0.6325 µM): 0.69
relative viability ([2]; first compound 2 µM): 0.722
relative viability ([3]; first compound 0.02 µM): 0.745
relative viability ([3]; first compound 0.2 µM): 0.698
relative viability ([3]; first compound 0.6325 µM): 0.735
relative viability ([3]; first compound 2 µM): 0.688
relative viability ([4]; first compound 0.02 µM): 1.21
relative viability ([4]; first compound 0.2 µM): 0.926
relative viability ([4]; first compound 0.6325 µM): 0.999
relative viability ([4]; first compound 2 µM): 0.985
relative viability ([5]; first compound 0.02 µM): 0.683
relative viability ([5]; first compound 0.2 µM): 0.636
relative viability ([5]; first compound 0.6325 µM): 0.606
relative viability ([5]; first compound 2 µM): 0.583

NCI-H1651
relative viability ([1]; first compound 0.003 µM): 0.83
relative viability ([1]; first compound 0.03 µM): 0.481
relative viability ([1]; first compound 0.09487 µM): 0.215
relative viability ([1]; first compound 0.3 µM): 0.279
relative viability ([2]; first compound 0.02 µM): 0.671
relative viability ([2]; first compound 0.6325 µM): 0.606
relative viability ([2]; first compound 2 µM): 0.282
relative viability ([3]; first compound 0.02 µM): 0.336
relative viability ([3]; first compound 0.2 µM): 0.316
relative viability ([3]; first compound 0.6325 µM): 0.288
relative viability ([3]; first compound 2 µM): 0.259
relative viability ([4]; first compound 0.02 µM): 0.623
relative viability ([4]; first compound 0.2 µM): 0.438
relative viability ([4]; first compound 0.6325 µM): 0.644
relative viability ([4]; first compound 2 µM): 0.524
relative viability ([5]; first compound 0.02 µM): 0.533
relative viability ([5]; first compound 0.2 µM): 0.541
relative viability ([5]; first compound 0.6325 µM): 0.564
relative viability ([5]; first compound 2 µM): 0.462

NCI-H1793
relative viability ([1]; first compound 0.003 µM): 0.743
relative viability ([1]; first compound 0.03 µM): 0.273
relative viability ([1]; first compound 0.09487 µM): 0.16
relative viability ([1]; first compound 0.3 µM): 0.256
relative viability ([2]; first compound 0.02 µM): 0.307
relative viability ([2]; first compound 0.2 µM): 0.258
relative viability ([2]; first compound 0.6325 µM): 0.235
relative viability ([2]; first compound 2 µM): 0.161
relative viability ([3]; first compound 0.02 µM): 0.344
relative viability ([3]; first compound 0.2 µM): 0.335
relative viability ([3]; first compound 0.6325 µM): 0.287
relative viability ([3]; first compound 2 µM): 0.243
relative viability ([4]; first compound 0.02 µM): 0.492
relative viability ([4]; first compound 0.2 µM): 0.443
relative viability ([4]; first compound 0.6325 µM): 0.328
relative viability ([4]; first compound 2 µM): 0.343
relative viability ([5]; first compound 0.02 µM): 0.841
relative viability ([5]; first compound 0.2 µM): 0.36
relative viability ([5]; first compound 0.6325 µM): 0.551
relative viability ([5]; first compound 2 µM): 0.441
